Legend:
yeast α-glucosidase = yeast α-glucosidase (Saccharomyces cerevisiae, UniProt P53341); test: Inhibition kinetics of α-glucosidase (Lineweaver–Burk and Dixon plots); type: biochemical; conditions: for Inhibition Mode, α-Glucosidase: Lineweaver–Burk plots
[1] = biological target: T1, porcine pancreas α-amylase (Sus scrofa, UniProt P00690); test: Inhibition kinetics of α-amylase (Lineweaver–Burk and Dixon plots); conditions: for Inhibition Mode, α-Amylase: Lineweaver–Burk plots
T1 sequence (P00690 16-511): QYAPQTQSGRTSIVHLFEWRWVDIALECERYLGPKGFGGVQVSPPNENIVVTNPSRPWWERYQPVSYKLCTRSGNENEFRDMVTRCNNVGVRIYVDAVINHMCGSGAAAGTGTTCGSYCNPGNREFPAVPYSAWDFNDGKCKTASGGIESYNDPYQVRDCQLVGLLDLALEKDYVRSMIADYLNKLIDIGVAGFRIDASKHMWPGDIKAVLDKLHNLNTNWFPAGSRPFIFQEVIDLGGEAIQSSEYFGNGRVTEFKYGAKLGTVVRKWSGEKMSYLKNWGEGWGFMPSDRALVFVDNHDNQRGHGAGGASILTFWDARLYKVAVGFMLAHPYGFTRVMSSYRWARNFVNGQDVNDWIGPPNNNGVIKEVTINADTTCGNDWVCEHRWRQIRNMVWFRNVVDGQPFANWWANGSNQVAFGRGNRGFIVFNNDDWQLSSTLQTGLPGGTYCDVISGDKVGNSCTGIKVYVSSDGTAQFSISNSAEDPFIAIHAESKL
Text: Using Lineweaver–Burk plots, the mode of inhibition was established, followed by secondary plots (Dixon plots) depending on the established mode of inhibition. The following equation was used to obtain the inhibition constants (Ki) [15]: v=Vmax ×S/Km(1+[I]/Ki)+S(1+[I]/αKi) where S and I are the concentrations of the substrate and inhibitor, respectively; Vmax is the maximum velocity; Km is the Michaelis–Menten constant; Ki is the competitive inhibition constant; and αKi is the uncompetitive inhibition constant.
Lineweaver–Burk plots on monoreplicate tests were performed followed by Dixon secondary plots to determine the inhibition constants. The means of the observed triplicate inhibition constants were subjected to analysis of variance with Tukey HSD/Tukey Kramer post-analysis to compare means. The least significant difference was considered at p < 0.05 and the coefficient of determination (R^2) was obtained as the average of the regression curves from Dixon plots of individual experiments.

α-glycosidase = biological target: α-glycosidase; set-up: method as in PMID 32889048; conditions: read-out: IC50 against α-glycosidase; cited from earlier work
[2] = Lineweaver-Burk plot, competitive inhibition

Sequence of yeast α-glucosidase (P53341 whole entry): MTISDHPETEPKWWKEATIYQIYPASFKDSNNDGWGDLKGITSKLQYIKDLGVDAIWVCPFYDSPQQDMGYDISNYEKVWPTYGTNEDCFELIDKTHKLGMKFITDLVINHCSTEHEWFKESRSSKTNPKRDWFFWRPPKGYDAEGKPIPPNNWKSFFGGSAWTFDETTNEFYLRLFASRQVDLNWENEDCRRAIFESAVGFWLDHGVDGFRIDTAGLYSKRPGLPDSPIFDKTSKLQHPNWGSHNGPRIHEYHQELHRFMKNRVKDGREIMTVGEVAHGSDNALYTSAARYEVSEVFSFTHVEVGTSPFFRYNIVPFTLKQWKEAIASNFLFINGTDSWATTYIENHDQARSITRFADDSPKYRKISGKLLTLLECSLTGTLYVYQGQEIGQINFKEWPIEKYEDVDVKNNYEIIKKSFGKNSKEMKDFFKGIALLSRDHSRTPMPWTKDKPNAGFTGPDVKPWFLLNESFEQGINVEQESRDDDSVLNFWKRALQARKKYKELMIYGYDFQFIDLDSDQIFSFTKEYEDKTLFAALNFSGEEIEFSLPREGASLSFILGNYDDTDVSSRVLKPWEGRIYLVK

Molecule: c1cc2c(cc1C1OCC3C(c4ccc5c(c4)OCO5)OCC13)OCO2 (stereo not shown) [Compound 11, sesamine]
- Inhibition Mode, α-Glucosidase (yeast α-glucosidase): non-competitive
- Inhibition Mode, α-Amylase [1]: Non-competitive

Molecule: CC(C)(O)CNC(=O)/C=C/c1ccccc1 [Compound 2, chalybemide B]
- Inhibition Mode, α-Glucosidase (yeast α-glucosidase): Uncompetitive
- Inhibition Mode, α-Amylase [1]: Non-competitive

Molecule: COc1ccc2c(OC)c3ccoc3nc2c1OC [Compound 5, skimmianine]
- Inhibition Mode, α-Glucosidase (yeast α-glucosidase): Mixed
- Inhibition Mode, α-Amylase [1]: Mixed

Molecule: COc1cc(-c2cc3cc(/C=C/CO)cc(OC)c3o2)ccc1O [Compound 9, ailanthoidol]
- Inhibition Mode, α-Glucosidase (yeast α-glucosidase): Uncompetitive
- Inhibition Mode, α-Amylase [1]: Uncompetitive

Molecule: CC(C)CNC(=O)/C=C/c1ccc2c(c1)OCO2 [Compound 4, fagaramide]
- Inhibition Mode, α-Glucosidase (yeast α-glucosidase): Non-competitive
- Inhibition Mode, α-Amylase [1]: Non-competitive

Molecule: OCC1OC1c1ccc2c(c1)OCO2 (stereo not shown) [Compound 10, 2,3-epoxy-6,7-methylenedioxyconiferol]
- 1/Vmax, α-glucosidase (yeast α-glucosidase; [2]): 20.25 s⁻¹
- Inhibition Mode, α-Glucosidase (yeast α-glucosidase): Competitive
- 1/Vmax, α-amylase [1, 2]: 24.47 s⁻¹
- Inhibition Mode, α-Amylase [1]: Competitive

Molecule: COc1ccc(CN(C)C(=O)c2ccccc2OC)cc1 [Compound 3, chalybemide C]
- Inhibition Mode, α-Glucosidase (yeast α-glucosidase): Non-competitive
- Inhibition Mode, α-Amylase [1]: Non-competitive

Molecule: 6-hydroxy-N-methyldecarine [Compound 8]
- Inhibition Mode, α-Glucosidase (yeast α-glucosidase): Mixed
- Inhibition Mode, α-Amylase [1]: Mixed

Molecule: C[C@H]1O[C@H](O[C@H]2[C@H](O)[C@@H](O)[C@@H](O[C@H]3[C@H](O)[C@@H](O)C(O)O[C@@H]3CO)O[C@@H]2CO)[C@H](O)[C@@H](O)[C@@H]1N[C@H]1C=C(CO)[C@@H](O)[C@H](O)[C@H]1O (stereo partly shown) [Acarbose, acarbose, reference compound]
- Inhibition Mode, α-Glucosidase (yeast α-glucosidase): Competitive
- IC50 (α-glycosidase): 44.9 µM
- Inhibition Mode, α-Amylase [1]: Competitive

Molecule: COc1ccc2c(cnc3c4cc5c(cc4ccc23)OCO5)c1OC [Compound 6, norchelerythrine]
- Inhibition Mode, α-Glucosidase (yeast α-glucosidase): Mixed
- Inhibition Mode, α-Amylase [1]: Mixed

Molecule: CC(C)CNC(=O)/C=C/C/C=C/c1ccc2c(c1)OCO2 [Compound 1, Chalybemide A]
- Inhibition Mode, α-Glucosidase (yeast α-glucosidase): Non-competitive
- Inhibition Mode, α-Amylase [1]: Non-competitive

From article PMC10059848, “Inhibition Kinetics and Theoretical Studies on Zanthoxylum chalybeum Engl. Dual Inhibitors of α-Glucosidase and α-Amylase” (Journal of Xenobiotics, 2023)
